Drawing on a melting point compilation (Tetko et al.; mined from patent text by program, amines drawn as free bases though some values may be those of a salt), this text covers melting point for 84 compounds.

Where only a bound is given, the exact number is not on record here.

For `Oc1ccc2c(-c3cccnc3)coc2c1`, the melting point (usually the temperature, or range, at which the solid turns liquid) was in the range of 167 to 168 °C.
As for `O=C(c1ccc2ncsc2c1)N1CCC[C@H](c2nc(-c3ccc(F)cc3)no2)C1`, the melting point lay within 63 to 64 °C.
The value for `CNC(=O)c1ncnc(C)c1NC(=O)c1cc(Cl)nn1-c1ncccc1Cl` was 205 to 207 °C; that for `CN1CCN(c2cc(F)cc3c(=O)cc(C(=O)Nc4ccc(N5CCN(C(=O)O)CC5)cc4)oc23)CC1` was 236 to 238 °C.
To `NS(=O)(=O)c1cc2c(s1)S(=O)(=O)CCN2` belongs 250 to 252 °C.
To `CCCc1ncc(C(=O)OCC)c(NCc2ccc(-c3ccccc3-c3nnnn3C(c3ccccc3)(c3ccccc3)c3ccccc3)cc2)n1` belongs 132 to 133 °C.
For the compound `CC(=O)Nc1nc2c(ncn2CCC(CO)CO)c(=O)[nH]1`, the melting point fell in the range of 143 to 146 °C.
To `Cc1c(OCCCSc2ccc3ncc([N+](=O)[O-])n3n2)ccnc1CO` belongs 135 to 136 °C; to `O=C(Cc1ccccn1)Nc1ccc(CCCc2ccccc2OCc2ccccc2)cc1`, 61 to 62 °C.
To `Cc1c(NC(=O)c2ccc(-c3ccc(F)cc3)cc2)ccc2cc(CN3CCC(CC(N)=O)CC3)cnc12` belongs 258 to 260 °C; to `c1cc(N2CCCCC2)ccc1OC12CC3CC(CC(C3)C1)C2`, 72 to 73.5 °C; to `CCOC(=O)[C@H]1[C@@H]2C=CC(=O)[C@@H]21` (racemic), 77 to 78 °C.
To `CC1(C)Oc2cc3nonc3cc2C(N2CC(O)CCC2=O)C1O` (centres undefined) belongs 178 to 182 °C; to `CC(C)(C)OC(=O)N1CCO[C@@H](c2ccc(C#N)cc2)C1`, 104 °C; to `CC(C)(C)n1ncc(OCc2ccc(OC(F)(F)C(F)OC(F)(F)F)cc2)c(Cl)c1=O` (centres undefined), 68 to 69 °C.
`O=C1NCCN1c1ccc(S(=O)(=O)Nc2ccc(C3CCCCC3)cc2)cc1` showed a melting point of 256 to 257 °C.
The value for `Cc1ccc(OCc2ccc(OCc3nc(-c4ccccc4)oc3C)cc2)c(CC(=O)O)c1` was 115 to 116 °C; that for `COc1ccc(OCc2nc3nccnc3c(=O)[nH]2)cc1` was 233 to 234 °C.
The value for `CCOCc1nc2c(N)nc3ccccc3c2n1CCCC(=O)OCC` was 129 to 131 °C; that for `COc1ccc(C2=NN(C3CCN(C(=O)c4c(Cl)cc(Cl)cc4Cl)CC3)C(=O)CC2)cc1OC` was 156 to 159 °C.
On to `CC(C)NCC(O)COC1c2ccccc2C(=O)N1c1ccc(Cl)cc1` (centres undefined), for which the melting point fell in the range of 90 to 92 °C.
In turn, `COC1(c2cc(F)cc(OCc3ccc4c(c3)CCC(=S)N4C)c2)CCOCC1` gave a melting point of 136 to 138 °C.
The value for `Cc1ccc(=O)n(-c2cccc(C(F)(F)F)c2)c1` was 95 °C.
To `CCCc1c(C(=O)C(C)C)c2ccc(C(=O)O)cc2n1Cc1ccccc1Br` belongs 193 to 194 °C.
`CCCSc1sc(C(N)=O)c2c1-c1nn(C)cc1CC2` returned a melting point of 208 to 209 °C.
The value for `CC(C)(C)[Si](C)(C)OC1CN(c2ccc(N3C[C@H](CN=[N+]=[N-])OC3=O)cc2F)C1` was 121 to 122 °C; that for `CCCC12CCC(=O)C=C1c1c(cc(OCC(=O)OCC)c(Cl)c1Cl)C2OC(C)=O` (centres undefined) was 128 to 130 °C; that for `COc1cc2c(Nc3cccc(C)c3)ncnc2cc1OCCN1CCOCC1` was 168 to 170 °C.
For `CC(C)n1cc2c3c(cccc31)C1CC(C(=O)NCCc3c[nH]cn3)CN(C)C1C2` (centres undefined), the melting point was 83 to 86 °C.
To `CC(C)n1nc(C(=O)NCC2CCN(CCc3ccc(C(=O)O)cc3)CC2)c2ccccc21` belongs 179 to 181 °C; to `CC(C(=O)O)c1ccc(-c2ccc(Br)cc2F)cc1` (centres undefined), 137 to 139 °C; to `COc1cccc(CNC(=O)[C@H]2N(C(=O)[C@@H](O)[C@@H](Cc3ccccc3)NC(=O)c3cccc(O)c3C)CSC2(C)C)c1`, 108 to 110 °C.
The compound `CCOc1ccccc1C(=O)Nc1c(OC)cccc1C(N)=O` showed a melting point of 177 to 179 °C.
On to `CCOc1ccc(C(=O)N2CC(C(=O)OC)N(S(=O)(=O)c3ccc(OC)cc3)Cc3ccccc32)cc1` (centres undefined), for which the melting point is 187 to 190 °C.
In turn, `O=c1[nH]c2ccccc2c(=O)n1CCCCCn1ccnc1` registered a melting point of 160 to 162 °C.
To `CC1CC(=O)Nc2nc(C#N)c3ncccc3c21` (centres undefined) belongs greater than 300 °C.
The value for `CC(C)(C)NS(=O)(=O)c1cccc(NC(=O)c2cnn3c(C4CC4)cc(-c4ccc(Cl)cc4)nc23)c1` was 238 to 239 °C.
To `CCCCC(C)(CC)C(O)C(Oc1ccc(-c2ccccc2)cc1)n1cncn1` (centres undefined) belongs 120 to 122 °C; to `COC(=O)c1cn(C2CC2)c2cc(F)c(F)cc2c1=O`, 223 to 224 °C.
For the compound `OCCNCCNCc1ccc(-c2cc3ncnc(Nc4ccc5[nH]ccc5c4)c3s2)cc1`, the melting point was in the range of 78 to 95 °C.
Regarding `COc1cccc(-n2c(-c3cc(-c4ccc(S(C)(=O)=O)cc4)c(N4CCOCC4)s3)nc3ccccc3c2=O)c1`, the melting point was in the range of 203 to 205 °C.
To `COC(=O)C1=C(O)c2sc(C(F)(F)F)cc2S(=O)(=O)N1` belongs 168 to 170 °C; to `CN1C(=O)Cc2ccc(F)cc21`, 100 to 101 °C.
Consider `CS(=O)(=O)c1ccc(Oc2ccc(Cl)c(Cl)c2)c(Cl)c1`, for which the melting point is 102 to 104 °C.
The value for `CCOC(=O)Cc1ccc(-c2nc(COc3ccc(CCl)cc3OC)c(C)o2)cc1` was 121 to 122 °C; that for `CC1Oc2ccc(Cl)cc2N(CC(O)CO)C1=O` (centres undefined) was 88 °C.
`CC(C)(CO)N1CC(COc2cccc(Cl)c2)OC1=O` (centres undefined): the melting point fell in the range of 81 to 82 °C.
To `O=c1oc(-c2ccccc2)cc(O)c1Cc1cccnc1SCc1ccccc1` belongs 103 to 106 °C.
The compound `Nc1sc2c(c1C(=O)c1ccccc1)CCSC2` gave a melting point of 92 to 95 °C.
The value for `C=C=CC(C)(O)c1ccc(Br)cc1` (centres undefined) was 45 to 50 °C.
To `COc1ccccc1N1CCN(C(=O)N(C)c2nc3ccccc3nc2OC)CC1` belongs 128 to 130 °C.
The value for `O=C(c1ccccc1)c1oc2ccccc2c1-c1ccc(-c2ccc(OC(Cc3ccccc3)C(=O)O)cc2)cc1` (centres undefined) was 159 to 161 °C.
`O=C1N[C@@H](SC(c2ccccc2)(c2ccccc2)c2ccccc2)[C@@H]1CO` (relative stereo) came in with a melting point of 160 to 162 °C.
To `CCCN1CCC(c2cccc(C(N)=O)c2)CC1` belongs 182 °C.
To `CC1N=C(c2ccccc2)OC(c2ccccc2)C1OC(=O)Nc1ccccc1` (centres undefined) belongs 150 °C; to `C=CCNc1cc(C(=O)O)cc(S(N)(=O)=O)c1-c1ccccc1`, 169 to 172 °C.
`CN(C)C(=Cc1ccccc1[N+](=O)[O-])C(=O)CN1C(=O)c2ccccc2C1=O` showed a melting point of 230 to 233 °C.
The value for `NC(=O)c1cccc(OCCCCC/C=C\c2ccsc2)c1` was 71 to 73 °C.
The value for `CS(=O)(=O)n1c(C#N)nc2cc3c(cc21)OC(F)(F)C(F)(F)O3` was 180 to 183 °C; that for `COc1ccc(C(=O)Nc2c(Cl)cncc2Cl)cc1OCCCCCCCCCCCc1ccccc1` was 114 to 115 °C.
The value for `CCOC(=O)c1cnn(C)c1C(=O)Nc1ccn2nc(N(C)CC)nc2c1` was 167 °C; that for `CS(=O)(=O)Nc1ccc(N2CCN(c3ccncc3)CC2)cc1` was 230 to 232 °C.
Take `CC(C)C(CNC(=O)OCc1ccccc1)C(=O)O` (centres undefined): the melting point lay within 75.5 to 78.5 °C.
Regarding `Cc1c(C)c2c(c(C)c1O)CCC(COc1ccc(CC3SC(=O)NC3=O)cc1)O2` (centres undefined), the melting point was 158 to 159 °C.
To `C=CCC(C)(C)CNc1cc(N2CCNCC2)nc(NCC(C)(C)CC=C)n1` belongs 72 to 84 °C; to `CC1CN(S(=O)(=O)c2cccc(C(=O)O)c2)C(C)CN1S(=O)(=O)c1cccc(C(=O)O)c1` (centres undefined), 223 to 227 °C; to `CN1CCN(c2ncc3c(=O)c(C(=O)O)cn(C4CC4)c3n2)CC1`, 209 to 210 °C.
In turn, `CCc1nn(-c2ccc(C(=N)N)cc2)c(=O)n1-c1ccc(CCC(=O)OC(C)C)cc1` showed a melting point greater than 250 °C.
To `CC(C)CN1CCN(CCc2ccc(-c3cccc(N)n3)cc2)CC1` belongs 85 to 88 °C; to `CCC1(CBr)Cc2cc(OC)c3c(c2C(c2ccccc2)=N1)CC(CC)(CC)O3` (centres undefined), 108 to 110 °C; to `COc1cc(OC)c(-c2cc3ccccc3s2)cc1C=CC(=O)c1cc(OC)c(OC)c(OC)c1`, 194 to 196 °C.
Consider `COCOc1ccc(CCCOc2c(CC(=O)O)cccc2OC)c(Oc2ccc(C(F)(F)F)cn2)c1`, for which the melting point was in the range of 70 to 72 °C.
The value for `CN1C(=O)C2(COc3cc4c(cc32)OCCO4)c2c(OCc3ncccc3C(F)(F)F)cccc21` (centres undefined) was 157 to 159 °C; that for `COc1cncc(OC)c1C(=O)Nc1ccc(C[C@H](NC(=O)Nc2ccccc2S(=O)(=O)c2ccccc2)C(=O)O)cc1` was 196 °C.
For `COc1ccc2c(c1F)C(=O)N(Nc1ccncc1)C2=O`, the melting point fell in the range of 206 to 210 °C.
The value for `COC1=CCC(Br)(OC)C=C1C(=O)C(Br)CCC1CCCCC1` (centres undefined) was 96 to 104 °C.
`CN(C)CCN1C(=O)C(NC(=O)c2ccc(NS(C)(=O)=O)cc2)C(C)(C)SC1=S` (centres undefined) returned a melting point of 158 to 159 °C.
To `Cn1nc(N)nc1NCCCOc1cccc(CNCC(F)(F)F)c1` belongs 62 to 64 °C.
In turn, `CCCC(=NO)c1ccc(C(=O)O)cn1` registered a melting point of 203 to 205 °C.
The value for `CCCCNC(=O)NS(=O)(=O)c1ccccc1-c1ccc(C(=O)OC)o1` was 145 to 148 °C; that for `COC(=O)c1cc2c(Cl)cccc2s1` was 84 to 86 °C.
The value for `O=c1c2cc(F)c(N3CCCC3)cc2n(-c2ccc(F)cc2)c(=O)n1O` was 183 to 185 °C.
To `C=CCC(O)(CC=C)c1nc(-c2ccncc2)c(-c2ccc(Cl)cc2)n1CC` belongs 159 to 160 °C; to `Cc1c(CC(c2ccccc2)c2ccccc2)ncn1C(c1ccccc1)(c1ccccc1)c1ccccc1`, 205 to 206 °C.
